The results in this text go back to patent publication US20240059740A1, “CYCLIC PEPTIDES AND USES THEREOF” (PRE[…] INC., priority 2020, published 2024).

Residues, ends and D or L forms follow the SMILES beside them.

Common to all, as to assay type: cell-based, human
Series [1] relates to CDH-2 (N-cadherin) mRNA. The experiment in a line: Real time RT-PCR, CDH-2 (N-cadherin) mRNA expression. An excerpt:
(§1) The real-time reverse transcription polymerase chain reaction (RT-PCR) uses fluorescent reporter molecules to monitor the production of amplification products during each cycle of the PCR reaction. This combines the nucleic acid amplification and detection steps into one homogeneous assay and use of appropriate chemistries and data analysis eliminates the need for Southern blotting or DNA sequencing for amplicon identification. Its simplicity, specificity and sensitivity, together with its potential for high throughput and the ongoing introduction of new chemistries, more reliable instrumentation and improved protocols, has made real-time RT-PCR the benchmark technology for the detection and/or comparison of RNA levels.’
(§2) In order to detect and quantify the expression of specific genes at mRNA level, real-time reverse transcriptase polymerase chain reaction (Real time RT-PCR) was performed. Total RNA of samples was isolated and purified using the PureLink® RNA Mini Kit (Life technologies). The concentration of total RNA was detected by NanoDrop 2000 Spectrophotometer (Thermo Scientific). The total RNA (2000 ng) was reverse transcribed using the High-Capacity cDNA Reverse Transcription Kit (Applied Biosystems™).
(§3) The primers of target genes were TaqMan™ Gene Expression Assay for human PLAU (Hs01547054_m1), MMP-2 (Hs01548727_m1), MMP-9 (Hs00957562_m1), Snail-1 (Hs00195591_m1), Snail-2 (Hs00161904_m1), N-cadherin (Hs00983056_m1) and Twist (Hs01675818_s1). Relative quantification was done by reference to 18S ribosomal RNA (18S rRNA) and analysed using the comparative critical threshold (Ct) method
(§4) The mRNA expression of MMPs was measured using qRT-PCR. This was tested three independent times; the results are shown in Tables 9, 10 and 11 for U251, U87 cells and O81024 cells respectively. Results are reported as percent of the control cells (no treatment). Both MMP-2 and uPA were decreased in U251 by SEQ ID NO.1.
(§5) Epithelial-mesenchymal transition (EMT) is the process by which epithelial cells acquire a migratory (metastatic) phenotype and so EMT is associated with cancer metastasis, cancer cell stemness, chemoresistance and immune resistance. Therefore, the determination of the mRNA expression of EMT markers is a valuable tool to evaluate invasion potential of cancer cells.
(§6) The ‘Snail’ superfamily is involved in cell differentiation and survival, two processes central in cancer research. Snail-1 has a pivotal role in the regulation of epithelial-mesenchymal transition (EMT) and Snail-1 expression is associated with poor prognosis in metastatic cancer, and tumours with elevated Snail-1 expression are harder to treat. […]
In general terms: Quantitative PCR measures a nucleic acid by following its amplification.

Series [2] relates to U87 cells. The experiment in a line: MTT assay for cytotoxicity, U87. To be noted: 48 hours, % viability of control. An excerpt: The MTT (3-[4.5-dimethylthiazol-2-yl]-2,5═diphenyl tetrazolium bromide) assay is based on a process undertaken by living cells, involving the conversion of MTT into formazan crystals. This assay is used routinely to measure the in vitro cytotoxic effects of drugs on cell lines or primary patient cells (Van Meerloo et al., 2011). The MTT assay measures mitochondrial activity, so in some instances where the peptide activates mitochondrial response, the results appear to increase the number of cells present i.e. >100% cell viability.
The aim of this experiment was to identify peptide concentrations that are active on living cells and cell viability was assessed.
The glioblastoma multiforme (GBM) cell lines used were U87 and U251 cells and patient derived cells grown as oncospheres (081024 cells). Human adherent GBM cell lines U87 and U251 were cultured in RPMI medium (Life Technologies Melbourne Australia) supplemented with 5% v/v FBS, 100 U/mL penicillin and 100 μg/mL streptomycin. 081024 cells were cultrured in NeuroCult™ NS-A Proliferation medium with 0.2% (v/v) heparin, 20 ng/mL EGF and 10 ng/mL FGF.
8×10^3 U87 and 7×10^3 U251 cells per well were seeded in 96 well plates in 200 μL serum-containing RPMI medium and incubated at 37° C. with 5% CO2 for 24 hours. After one wash with serum-free medium, 100 μL serum-free medium with different concentration of peptide SEQ ID NO:1 was added to each well. After 48 hours incubation, 10 μL of 0.5 mg/mL MTT was added and incubated for 2 hours at 37° C. Formazan crystals were dissolved by 200 μL/well dimethyl sulfoxide (DMSO) and shaking for 15 minutes. The UV absorbance was read with an iMark™ microplate absorbance reader at 595 nm (Bio-Rad Laboratories). Background absorbance was subtracted and results expressed as the % viability of control (untreated cells).
A general note: Tetrazolium dyes change colour on reduction, which living cells bring about.

Series [3] deals with Snail-2 mRNA. The experiment in a line: Real time RT-PCR, Snail-2 mRNA expression.
Description: as §1, §2, §3, §4, §5, §6

Where [4] appears, read: 081024 cells, baseline expression level = 1.
Where [5] appears, read: U87 cells, baseline expression level = 1.
The mark [6] stands for this setting: U251 cells, relative to control (no treatment).

Take `CC(C)C[C@@H]1NC(=O)[C@H](C)NC(=O)[C@@H](NC(=O)[C@@H]2CCCN2C(=O)[C@@H](N)CC(C)C)CSSC(C)(C)CNC(=O)CC[C@@H](C(=O)N[C@@H](CCCNC(=N)N)C(N)=O)NC(=O)[C@H](CC(=O)O)NC(=O)[C@H](CC(N)=O)NC1=O` [SEQ ID NO: 1, Leu-Pro-c(SSA*-Ala-Leu-Asn-Asp-Glu)-Arg-NH2] (HELM PEPTIDE1{L.P.C.A.L.N.D.E.R.[am]}|CHEM1{[CC(C)(CN[*:2])S[*:1]]}$PEPTIDE1,CHEM1,3:R3-1:R1|PEPTIDE1,CHEM1,8:R3-1:R2$$$V2.0; N-terminus assumed): the “mRNA expression, CDH-2” value in series [1] (setting [4]) is listed as 0.91; in series [1] (setting [5]), 0.98; in series [1] (setting [6]) it was 0.82. Moreover, the “mRNA expression, CDH-2 (in words)” value in series [1] (cell line not specified) is “non-statistical decrease in expression”. In addition, the Cell viability is 96.34% in series [2] (1 μM); 102.4% in series [2] (5 μM); 100.1% in series [2] (10 μM); 98.71% in series [2] (50 μM); 102.8% in series [2] (100 μM); 96.94% in series [2] (500 μM). Further, the Cell viability in series [2] (1 mM) turned out to be 83.41%. Also, the “mRNA expression, Snail-2” value in series [3] (setting [4]) worked out at 1.01; in series [3] (setting [5]) it was 0.94; in series [3] (setting [6]) it was 0.75. The “mRNA expression, Snail-2 (in words)” value in series [3] (cell line not specified) is on record as “non-statistical decrease in expression”.
